BigSolDB 2.1

O=[N+]([O-])c1cc([N+](=O)[O-])c(Cl)cc1Cl
Details | solubility (mole fraction)
in 1,2-dichloroethane, 298.15 K | 0.138
in 1,2-dichloroethane, 303.15 K | 0.156
in 1,2-dichloroethane, 308.15 K | 0.176
in 1,2-dichloroethane, 313.15 K | 0.199
in 1,2-dichloroethane, 318.15 K | 0.224
in 1,2-dichloroethane, 323.15 K | 0.251
in 1,2-dichloroethane, 328.15 K | 0.282
in 1,2-dichloroethane, 333.15 K | 0.316
in DMF, 298.15 K | 0.286
in DMF, 303.15 K | 0.308
in DMF, 308.15 K | 0.329
in DMF, 313.15 K | 0.353
in DMF, 318.15 K | 0.378
in DMF, 323.15 K | 0.406
in DMF, 328.15 K | 0.436
in DMF, 333.15 K | 0.469
in DMSO, 298.15 K | 0.192
in DMSO, 303.15 K | 0.215
in DMSO, 308.15 K | 0.241
in DMSO, 313.15 K | 0.269
in DMSO, 318.15 K | 0.3
in DMSO, 323.15 K | 0.332
in DMSO, 328.15 K | 0.368
in DMSO, 333.15 K | 0.408
in NMP, 298.15 K | 0.362
in NMP, 303.15 K | 0.381
in NMP, 308.15 K | 0.4
in NMP, 313.15 K | 0.421
in NMP, 318.15 K | 0.444
in NMP, 323.15 K | 0.468
in NMP, 328.15 K | 0.495
in NMP, 333.15 K | 0.524
in acetone, 288.15 K | 0.169
in acetone, 293.15 K | 0.187
in acetone, 298.15 K | 0.206
in acetone, 303.15 K | 0.227
in acetone, 308.15 K | 0.249
in acetone, 313.15 K | 0.273
in acetone, 318.15 K | 0.298
in acetone, 323.15 K | 0.326
in acetonitrile, 298.15 K | 0.129
in acetonitrile, 303.15 K | 0.154
in acetonitrile, 308.15 K | 0.183
in acetonitrile, 313.15 K | 0.217
in acetonitrile, 318.15 K | 0.254
in acetonitrile, 323.15 K | 0.296
in acetonitrile, 328.15 K | 0.344
in acetonitrile, 333.15 K | 0.397
in chloroform, 293.15 K | 0.108
in chloroform, 298.15 K | 0.128
in chloroform, 303.15 K | 0.149
in chloroform, 308.15 K | 0.175
in chloroform, 313.15 K | 0.205
in chloroform, 318.15 K | 0.238
in chloroform, 323.15 K | 0.274
in chloroform, 328.15 K | 0.319
in dichloromethane, 278.15 K | 0.0915
in dichloromethane, 283.15 K | 0.106
in dichloromethane, 288.15 K | 0.121
in dichloromethane, 293.15 K | 0.138
in dichloromethane, 298.15 K | 0.158
in dichloromethane, 303.15 K | 0.181
in dichloromethane, 308.15 K | 0.205
in ethanol, 298.15 K | 0.00702
in ethanol, 303.15 K | 0.00858
in ethanol, 308.15 K | 0.0104
in ethanol, 313.15 K | 0.0126
in ethanol, 318.15 K | 0.0156
in ethanol, 323.15 K | 0.0189
in ethanol, 328.15 K | 0.0232
in ethanol, 333.15 K | 0.0282
in ethyl acetate, 298.15 K | 0.17
in ethyl acetate, 303.15 K | 0.189
in ethyl acetate, 308.15 K | 0.207
in ethyl acetate, 313.15 K | 0.228
in ethyl acetate, 318.15 K | 0.251
in ethyl acetate, 323.15 K | 0.277
in ethyl acetate, 328.15 K | 0.306
in ethyl acetate, 333.15 K | 0.336
in isopropanol, 298.15 K | 0.00322
in isopropanol, 303.15 K | 0.00429
in isopropanol, 308.15 K | 0.00581
in isopropanol, 313.15 K | 0.00763
in isopropanol, 318.15 K | 0.01
in isopropanol, 323.15 K | 0.0131
in isopropanol, 328.15 K | 0.0173
in isopropanol, 333.15 K | 0.0223
in methanol, 298.15 K | 0.00929
in methanol, 303.15 K | 0.0112
in methanol, 308.15 K | 0.0135
in methanol, 313.15 K | 0.0163
in methanol, 318.15 K | 0.0197
in methanol, 323.15 K | 0.0236
in methanol, 328.15 K | 0.0284
in methanol, 333.15 K | 0.0341
in n-butanol, 298.15 K | 0.00624
in n-butanol, 303.15 K | 0.00794
in n-butanol, 308.15 K | 0.0101
in n-butanol, 313.15 K | 0.0128
in n-butanol, 318.15 K | 0.016
in n-butanol, 323.15 K | 0.0201
in n-butanol, 328.15 K | 0.025
in n-butanol, 333.15 K | 0.0308
in tetrachloromethane, 298.15 K | 0.0153
in tetrachloromethane, 303.15 K | 0.0207
in tetrachloromethane, 308.15 K | 0.0276
in tetrachloromethane, 313.15 K | 0.0368
in tetrachloromethane, 318.15 K | 0.049
in tetrachloromethane, 323.15 K | 0.0638
in tetrachloromethane, 328.15 K | 0.0835
in tetrachloromethane, 333.15 K | 0.108
in toluene, 298.15 K | 0.201
in toluene, 303.15 K | 0.225
in toluene, 308.15 K | 0.25
in toluene, 313.15 K | 0.277
in toluene, 318.15 K | 0.307
in toluene, 323.15 K | 0.34
in toluene, 328.15 K | 0.374
in toluene, 333.15 K | 0.413
